Here are results for six compounds from publication PMC10823475, “Design, Synthesis, and Evaluation of Inhibitors of Hedgehog Acyltransferase” (Journal of Medicinal Chemistry, 2024).

Several values for one entry are separate records, joined by “and”; a condition that tells them apart may be missing. Identical values can stand only once. A value given as a limit tells only on which side of the number the result lay.

A short description of one data set: in vitro. The settings on record: PAMPA. Background: The PAMPA barrier holds no transporters, so it reflects passive diffusion.
The next data set concerns the target T1, purified HHAT (Homo sapiens, UniProt Q5VTY9).
T1 construct: made in house
Put plainly: Acyl-cLIP assay, inhibition of purified HHAT. In kind it is biochemical. The settings on record: for LLEAcyl-cLIP: from Acyl-cLIP IC50 and clogDpH7.4; for IC50: purified HHAT, read-out: Acyl-cLIP Assay IC50 (CI95). In a few lines:
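Percent inhibition was first taken at 50 μM and 25 μM, then IC50 derived from variable-slope dose-response curves of initial rate constants, normalized against DMSO and HHAT-free samples. Reaction: purified DDM-solubilized HHAT transfers palmitoyl from palmitoyl-CoA onto a FAM-SHH peptide (MES, pH 6.5), monitored 30 min by fluorescence anisotropy.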

A short description of data set [1]: MTS assay, cytotoxicity (72 h). The class given is cell-based. The settings on record: human, HEK293a SHH+ cells, 72 h; for CC50 at 72 h: read-out: MTS Assay (HEK293a SHH+) CC50 (CI95). In a few lines:
(§1)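 Cells plated at 5000/well, cultured 24 h, then exposed to analogues (0.14–100 μM final) in DMEM/10% FBS for 72 h. MTS/PMS added for 3 h at 37 °C and absorbance read at 490 nm; data normalised to DMSO vehicle and puromycin (2 μg/mL) wells, curves fitted with a variable-slope sigmoidal model.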
(In general: Formazan colour is commonly taken as a measure of viable cells.)

The subject of a further data set is HEK293a SHH+ cells. Put plainly: MTS assay, cytotoxicity (72 h). The settings on record: for decrease in cell viability / cell survival: 12.5 μM; for CC50: 72 h, read-out: MTS Assay (HEK293a SHH+) CC50 (CI95). In kind it is cell-based. In a few lines:
as §1

A short description of data set [2]: Microsomal incubations, mouse liver microsomes. The settings on record: 1 μM. In kind it is in vitro ADME. The procedure: (§2) Metabolic stability assays were performed using a Microlab Star liquid handling workstation (Hamilton Robotics, Bonaduz, Switzerland). Test compounds (1 μM, 1% DMSO) were preincubated at 37 °C for 10 min in 0.5 mg/mL female CD1 mouse and mixed gender human liver microsomes in 10 mM phosphate buffered saline (PBS; Sigma-Aldrich Company Ltd. (Dorset, UK)). Microsomes were purchased either from Sekisui XenoTech, LLC (Kansas City, USA) or BioreclamationIVT (Frankfurt Am Main, Germany). Reactions were initiated by the addition of NADPH (final concentration 1 mM). At 0, 15, and 30 min, aliquots were removed from each incubation and quenched in 3 volumes of ice-cold methanol containing olomoucine (Sigma-Aldrich, Dorset, UK) as an internal standard. […] The percentage metabolized was calculated by comparing peak area ratio (peak area test compound/peak area of internal standard) at t = 15 and 30 min versus t = 0 min.
For orientation: Microsomes from liver hold many membrane-bound enzymes, among them those of drug oxidation.

The nature of data set [3]: Microsomal incubations, human liver microsomes. The class given is in vitro ADME. The settings on record: 1 μM. The procedure:
as §2

Data set [4] can be described thus: PAMPA parallel artificial membrane permeability assay. The settings on record: for recovery at 16 h, 10 µM / Papp at 16 h, 10 μM: PAMPA.
Description: (§3) Passive diffusion was estimated using the PAMPA method. […] The donor plate was a MultiScreen-IP Plate with 0.45 μm hydrophobe Immobilon-P Membrane (Millipore, #MAIPNTR10) and the acceptor plate was a MultiScreen 96-well Transport Receiver Plate (Millipore, #MATRNPS50). […] Acceptor pH was 7.4. All samples were analyzed against an external, matrix-matched, standard curve by LC-MS/MS with a Waters (Elstree, Herts. UK) Acquity H-class LC system coupled to a Waters TQ-S mass spectrometer. Permeability values (cm/s) were calculated using the following equation: [drawing 2] and VD = volume of donor; VA = volume of acceptor; area = surface area of the membrane · porosity.
In data set [5] the test system is HH signaling (HEK293a SHH+ conditioned media on SHH-Light2 cells). The data set can be described thus: Light2 dual-luciferase cell-based HH signaling assay (Firefly). As to conditions: Firefly luciferase, Light2 cells; read-out: HH signaling inhibition EC50 (CI95). The procedure:
Subsequently, the effect of analogues on HH signaling was investigated using a cellular luciferase reporter assay. Light2 cells derived from NIH3T3 cells constitutively express Renilla luciferase as an internal control for cell density alongside Firefly luciferase under the control of a HH-responsive Gli promoter.[43] HEK293a SHH^+ cells were incubated with varying inhibitor concentrations and SHH-containing conditioned media transferred to the NIH3T3-Light2 cells to mimic paracrine signaling[30],[35] (Figure 6A).
The Light2 cell-based signaling assay has been described previously.[35] Briefly, HEK293a SHH^+ cells were plated at 120,000 cells/well of a 12-well plate in a volume of 1 mL/well and cultured as described above. After 24 h, cells were washed with PBS, followed by addition of 1 mL of media containing 0.2% DMSO or varying inhibitor concentrations in DMSO (0.041–30 μM final). Additionally, SHH-Light2 cells were plated at 20,000 cells/well of a 96-well plate in 50 μL media. After another 24 h, 300 μL of the conditioned media were collected from each well of the treated HEK293a SHH^+ cells, centrifuged at 1000g for 10 min to remove detached cells and split into three wells of the SHH-Light2 cells (100 μL/well; 150 μL final volume in each well). The treated Light2 cells were cultured for another 48 h and subsequently washed with PBS. Firefly and Renilla luciferase activity was measured using the Dual-Luciferase reporter system (Promega Corporation, USA). Then 20 μL of 1× passive lysis buffer were added to each well. After 30 min at RT, 5 μL of each lysate were transferred to a white opaque 96-well plate. Then 20 μL/well of luciferase assay reagent II was added and the luminescence immediately recorded using a SpectraMax i3x plate reader (Molecular Devices LLC). Subsequently, 20 μL/well of 1× Stop&Glo substrate in Stop&Glo buffer was added and the luminescence immediately recorded for a second time. Data was evaluated using a “sigmoidal dose response (variable slope)” model in GraphPad Prism 5 (GraphPad Software, Inc.). The luminescence signal of the Firefly luciferase was normalized to the DMSO vehicle (100%) and the unconditioned media (0%) controls.

The mark [6] stands for this setting: pH 5, PAMPA Papp pH 5, donor pH 5, 10 µM.
The mark [7] stands for this setting: pH 5, PAMPA Permeability Class pH 5, donor pH 5, 10 µM.
The mark [8] stands for this setting: pH 6.5, PAMPA Papp pH 6.5, donor pH 6.5, 10 µM.
The mark [9] stands for this setting: pH 6.5, PAMPA Permeability Class pH 6.5, donor pH 6.5, 10 µM.
[10] abbreviates: pH 7.4, PAMPA Papp pH 7.4, donor pH 7.4, 10 µM.

T1 sequence (Q5VTY9 whole entry): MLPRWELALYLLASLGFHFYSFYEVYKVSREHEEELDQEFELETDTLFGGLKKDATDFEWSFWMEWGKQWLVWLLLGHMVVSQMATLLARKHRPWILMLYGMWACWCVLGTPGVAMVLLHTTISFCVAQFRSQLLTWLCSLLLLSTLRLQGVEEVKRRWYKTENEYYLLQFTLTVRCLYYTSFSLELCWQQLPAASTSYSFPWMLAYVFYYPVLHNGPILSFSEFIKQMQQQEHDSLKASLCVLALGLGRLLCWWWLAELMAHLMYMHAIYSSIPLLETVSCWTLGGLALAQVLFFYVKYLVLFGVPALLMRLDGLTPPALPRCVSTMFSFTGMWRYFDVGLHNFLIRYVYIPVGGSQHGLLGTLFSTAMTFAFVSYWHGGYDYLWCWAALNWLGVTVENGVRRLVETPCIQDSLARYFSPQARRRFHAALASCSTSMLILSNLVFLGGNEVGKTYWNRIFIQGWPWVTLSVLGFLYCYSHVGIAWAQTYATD
Description for in vitro: as §3

In the case of `Cc1cc(=O)n(-c2ccccc2)n1C` [Antipyrine], the recovery at 16 h, 10 µM in “in vitro” (pH 5) came to 109%; in “in vitro” (pH 6.5), 119%; in “in vitro” (pH 7.4), 145%. Moreover, the Papp at 16 h, 10 μM in the data set “in vitro” (pH 5, PAMPA Papp pH 5) is 65 nm/s; in the data set “in vitro” (pH 5, PAMPA Permeability Class pH 5), 50 to 200 nm/s; in “in vitro” (pH 6.5, PAMPA Papp pH 6.5), 66 nm/s; in the data set “in vitro” (pH 6.5, PAMPA Permeability Class pH 6.5) it was 50 to 200 nm/s; in “in vitro” (pH 7.4, PAMPA Papp pH 7.4), 73 nm/s; in the data set “in vitro” (pH 7.4, PAMPA Permeability Class pH 7.4), 50 to 200 nm/s.
As to `CCC(C)CNCC(=O)N1CCc2ccccc2C1c1ccccc1` (centres unmarked) [Compound 38, 2-((2-Methylbutyl)amino)-1-(1-phenyl-3,4-dihydroisoquinolin-2(1H)-yl)ethan-1-one], on purified HHAT, 25 µM produced 91 ± 5% inhibition, the inhibition at 50 µM was 95 ± 5%, the LLEAcyl-cLIP is 2.82 and the IC50 came out at 7.01 µM. Also, in data set [1], the CC50 at 72 h came out at 8.1 µM; the viability at 72 h, 12.5 µM was determined as 69 ± 4%; the viability at 72 h, 25 µM is 33 ± 6%. Moreover, the “toxicity to HEK293a SHH+ cells” value with HEK293a SHH+ cells is “toxic”. Moreover, in data set [2], the “MLM % metabolized after 15 min” value is 100.0% and > 90%; the “MLM % metabolized after 30 min” value worked out at 100.0%. Moreover, in data set [3], the “HLM % metabolized after 15 min” value amounted to 30.3% and the “HLM % metabolized after 30 min” value is given as 49.2%. The compound further had a recovery at 16 h, 10 µM in data set [4] (pH 5) of 91%. In data set [4] (setting [6]), this compound displayed an apparent permeability (Papp) at 16 h, 10 μM of 13 nm/s. In data set [4] (setting [7]), the Papp at 16 h, 10 μM was less than 50 nm/s. Moreover, the recovery at 16 h, 10 µM in data set [4] (pH 6.5) was 45%. The Papp at 16 h, 10 μM in data set [4] (setting [8]) was 244 nm/s. The Papp at 16 h, 10 μM in data set [4] (setting [9]) is greater than 200 nm/s. In addition, in data set [4] (pH 7.4), the recovery at 16 h, 10 µM was found to be 17% and the “PAMPA passive permeability” value is on record as “high passive permeability”. The same compound gave a Papp at 16 h, 10 μM in data set [4] (setting [10]) of 539 nm/s.
Turning to `CC(C)CNCC(=O)N1CCc2ccccc2C1c1ccccc1` (centres unmarked) [Compound 39, 2-((2-Methylpropyl)amino)-1-(1-phenyl-3,4-dihydroisoquinolin-2(1H)-yl)ethan-1-one], on purified HHAT, 25 µM produced 81 ± 2% inhibition, the inhibition at 50 µM turned out to be 86 ± 1%, the LLEAcyl-cLIP was found to be 3.30 and the IC50 was 6.02 µM. Also, in data set [1], the CC50 at 72 h was greater than 50 µM; the viability at 72 h, 12.5 µM came to 94 ± 3%; the viability at 72 h, 25 µM amounted to 92 ± 4%. Further, in the data set on HEK293a SHH+ cells, the “decrease in cell viability / cell survival” value was less than 30% and the CC50 is greater than 100 µM. Moreover, the EC50 in data set [5] stood at 2.59 µM.
With `CCC(C)CNCC(=O)N1CCc2ccc(Cl)cc2C1c1ccccc1` (centres unmarked) [Compound 45, 1-(7-Chloro-1-phenyl-3,4-dihydroisoquinolin-2(1H)-yl)-2-((2-methylbutyl)amino)ethan-1-one], at purified HHAT, the inhibition at 25 µM came out at 89 ± 3%, at 50 µM the inhibition was 93 ± 3%, the LLEAcyl-cLIP worked out at 2.43 and the IC50 is 4.22 µM. In data set [1], the CC50 at 72 h stood at 15.4 µM; the viability at 72 h, 12.5 µM was found to be 70 ± 3%; the viability at 72 h, 25 µM came to 14 ± 4%. In addition, in the data set on HEK293a SHH+ cells, the “toxicity to HEK293a SHH+ cells” value is given as “toxic” and the “decrease in cell viability / cell survival” value was less than 30%. Further, the EC50 in data set [5] was found to be 6.44 µM.
For `CC(=O)N1CCc2sccc2[C@@H]1c1cccc(C)n1` [Compound 29, (R)-1-(4-(6-Methylpyridin-2-yl)-6,7-dihydrothieno[3,2-c]pyridin-5(4H)-yl)ethan-1-one], on purified HHAT, the inhibition at 25 µM is 76 ± 2%, the inhibition at 50 µM was 86 ± 2%, the LLEAcyl-cLIP is listed as 3.10 and the IC50 turned out to be 7.45 µM. The “fold increase in potency compared to racemate” value at purified HHAT (enantiomer vs racemate (29 vs 21, 30 vs 24, 43 vs 39)) was 2 fold. Also, in data set [1], the CC50 at 72 h is greater than 50 µM; the viability at 72 h, 12.5 µM came out at 92 ± 3%; the viability at 72 h, 25 µM was found to be 88 ± 5%. Also, in the data set with HEK293a SHH+ cells, the “decrease in cell viability / cell survival” value is listed as less than 30% and the CC50 is greater than 100 µM. Also, the EC50 in data set [5] is 1.29 µM.
Consider `CC(=O)N1CCc2ccccc2C1c1ccccc1` (centres unmarked) [Compound 37, 1-(1-Phenyl-3,4-dihydroisoquinolin-2(1H)-yl)ethan-1-one], for which the inhibition at 25 µM at purified HHAT was found to be 55 ± 7%. On purified HHAT, this compound gave an inhibition at 50 µM of 53 ± 3%. Further, the IC50 on purified HHAT was greater than 25 µM. The CC50 at 72 h in data set [1] worked out at 47.9 µM. Moreover, the viability at 72 h, 12.5 µM in data set [1] was 101 ± 5%. Also, the viability at 72 h, 25 µM in data set [1] came out at 94 ± 6%. In addition, in the data set with HEK293a SHH+ cells, the CC50 was greater than 50 µM. Also, the “MLM % metabolized after 15 min” value in data set [2] was 94.6% and > 90%. In data set [2], the “MLM % metabolized after 30 min” value was determined as 99.8%. Further, the “HLM % metabolized after 15 min” value in data set [3] is reported as 45.2%. In data set [3], the “HLM % metabolized after 30 min” value was 55.9%. Besides, the recovery at 16 h, 10 µM amounted to 95% in data set [4] (pH 5), 92% in data set [4] (pH 6.5) and 89% in data set [4] (pH 7.4). The Papp at 16 h, 10 μM in data set [4] (setting [6]) is greater than 2000 nm/s; in data set [4] (setting [7]), greater than 200 nm/s; in data set [4] (setting [8]), greater than 2000 nm/s; in data set [4] (setting [9]), greater than 200 nm/s; in data set [4] (setting [10]) it was greater than 2000 nm/s; in data set [4] (pH 7.4, PAMPA Permeability Class pH 7.4, donor pH 7.4, 10 µM) it was greater than 200 nm/s. The “PAMPA permeability” value in data set [4] (over the full pH range tested) is given as “high permeability”. In addition, in data set [4] (pH 7.4), the “PAMPA passive permeability” value is listed as “high passive permeability”.

By Papp is commonly meant a coefficient for how fast a substance crosses the barrier. A high value points to fast passage. Usually inhibition stands for the percentage by which the read-out fell short of the control. Read a low inhibition as a weak effect. As usually defined, the IC50 is the concentration at which inhibition is half-maximal. The term CC50 denotes the concentration that lowers cell viability or growth by half. By viability is commonly meant a read-out of living cells in per cent, often relative to untreated cells. By EC50 is commonly meant the concentration at which the effect is half-maximal.
